Source: article PMC11726150, “Pre‐ADMET studies of 5‐(3′,4′‐dihydroxyphenyl)‐γ‐valerolactone, the bioactive intestinal metabolite of proanthocyanidins” (Archiv Der Pharmazie, 2024)

What was measured:
MTT cell viability assay = format: cell-based, canine; conditions: dog, Wt-MDCK cells, 1.5–50 µM, 6 h exposure, read-out: cells remaining viable
Protocol: The effect of test samples on cell viability was measured using an MTT assay. Briefly, exponentially growing 2 × 10^4 cells/200 μL were seeded in 96‐well plates and allowed to grow until reaching their differentiation state. Cells were treated with different concentrations of VL (50–1.6 µM) and positive control camptothecin (30–1 μM) serially diluted in serum‐free medium. After incubation, 10 μL of MTT dye (5 mg/mL stock in PBS) was added to each well, and plates were additionally incubated for 4 h. Further, media were aspirated, and cells were washed with 100 μL of phosphate buffer saline. The formazan blue crystals formed by viable cells were dissolved in 150 μL of DMSO, and the absorbance was measured at 580 nm on a Bio‐Tek, Synergy HT Multi‐Mode, plate reader. The % decrease in viability of sample‐treated cells was calculated compared with vehicle‐treated cells.^[ [46] ^]

Caco2 monolayers = assay: In vitro transport study across 21‐day Caco2 monolayers; format: in vitro ADME, human
Protocol: Caco2 cells between passage numbers 42–50 and MDCK cells between passage numbers 21–26 were used for transport studies; the assay was conducted as reported by Volpe^[ [33] ^] with slight modifications. Transport experiments were performed in 12‐well Transwell plates. Caco2 cells were seeded at a density of 60,000 cells/cm^2 and grown for 21 days, with change of media every 3 days, while MDCK cells were seeded at a density of 70,000 cells/cm^2 and grown for 5 days, changing the medium daily. The physiological and morphological formation of a confluent monolayer was evaluated by measuring the TEER value: Caco2 monolayers became confluent 1 week after seeding with TEER values greater than 450 Ω/cm^2, while MDCK monolayers became confluent 24 h after seeding with TEER values greater than 90 Ω/cm^2. Phenol red and serum‐free DMEM/F12 medium was used as transport buffer. For bidirectional transport, VL (50 μM) and control compound (propranolol and paclitaxel, 10 μM) were added to the apical side to determine apical to basolateral transport (A–B; absorptive direction) and to the basal side to determine basolateral to apical transport (B–A; secretory direction). The volume of the apical and basolateral chambers was 0.5 and 1.5 mL, respectively. Aliquots of 120 μL were taken from the basolateral (for A–B transport) or the apical (for B–A transport) chamber at 30, 60, 90, and 120 min. An equal volume was replaced with a transport buffer at every time point. At the beginning and at the end of the experiment, an aliquot was also taken from the apical or basolateral chamber for analysis of the drug. To determine the integrity of monolayers, TEER values were measured before and after the experiment. In addition, at the end of the experiment cells were collected and lysed to evaluate the compound intake. Briefly, cells were washed twice with cold PBS and 200 µL of cold MeOH was added to detach and lysate the cells; subsequently, cells were collected into lo‐bind Eppendorf and sonicated in ice for 10 min, then centrifuged for 15 min at 4°C at 14,000 rpm (Eppendorf Centrifuge 5430 R). The supernatant was collected and used for further analysis.
The apparent permeability P app (cm/s) of compounds was calculated from the following equation (Equation 1), while P app (cm/s) of the metabolites was calculated from the equation (Equation 2): (1) Papp=dQ/dt×1/C×1/A.
Equation (1) for calculating P app (cm/s) of tested reference compounds. (2) Papp=Metabolic cleareance/A.
Equation (2) for calculating P app (cm/s) of compound metabolites.
with Metabolic cleareance=Rate of metabolism/C and where dQ/dt is the rate of transport, C is the initial concentration in the donor compartment, and A is the surface area of the filter. To quantify the rate of transport, cumulative amounts of test compounds were plotted against time (min).
Efflux ratio was calculated using the following equation (Equation 3)^[ [48] ^]: (3) Efflux ratio=Papp(B−A)/Papp(A−B).

[1] = Metabolic stability assay with human S9 liver fraction; format: in vitro ADME
Protocol: (§1) HLMs and S9 fractions were used to determine, respectively, phases I and II metabolism of VL. A mixture of the activating cofactors (NADP^+ and UDPGA) and enzymes (G6PO4 and G6PDH) were used to stimulate the metabolism; in the microsome assay UDPGA was not needed. The final concentrations of cofactors NADPH and UDPGA were 1 mM each, while for the enzymes G6PO4 and G6PDH were 10 mM and 2 U/mL, respectively. The phosphate buffer was prepared as a 100 mM solution, pH 7.4, containing 10 mM magnesium chloride in deionized water. Testosterone and 7‐hydroxycoumarin were used as positive controls for phases I and II metabolism, and stock reference solutions of controls and VL were prepared, respectively, at 5 mM and 10 mM concentration in DMSO, and then diluted to a final test concentration of 10 µM. S9 fraction or microsome, final concentration 1 mg/mL, were preincubated with a test compound for 5 min at 37°C in the phosphate buffer, pH 7.4, and then the reactions were initiated by adding the cofactor mixture. A negative control sample was prepared replacing the reaction enzymes with water in the presence of a reaction mixture and test compound VL. At time points 0, 10, 20, 30, 45, 60, 90, and 120 min, 100 µL aliquots of the sample mixture were removed and quenched by the addition of two volumes of ice‐cold 50:50 ACN:MeOH containing the internal standard (cinnamic acid‐d6, 300 ng/mL final concentration). The quenched samples were then stored at −80°C overnight and defrosted before analysis, sonicated for 10 min, and centrifuged at 14,000 rpm for 15 min at 4°C to sediment the precipitated proteins before injection onto ultra performance liquid chromatography‐mass/mass (UPLC‐MS/MS) for analysis. T ½ was calculated using the interpolating point method using the nonlinear fit option of GraphPad Prism 8, while intrinsic clearance CL'int (mL/min/kg) was calculated as written in Equation (4) and as reported previously:^[ [23] ^] (4) CL^′int=0.693×Dose/T½.

[2] = Metabolic stability assay with human liver microsomes; format: in vitro ADME
Protocol: as §1, with “At time points 0, 10, 20, 30, 45, 60, 90, and 120 min, 100 µL aliquots of the sample mixture were removed and quenched by the addition of two volumes of ice‐cold 50:50 ACN:MeOH containing the internal standard (cinnamic acid‐d6, 300 ng/mL final concentration). The quenched samples were then stored at −80°C overnight and defrosted before analysis, sonicated for 10 min, and centrifuged at 14,000 rpm for 15 min at 4°C to sediment the precipitated proteins before injection onto ultra performance liquid chromatography‐mass/mass (UPLC‐MS/MS) for analysis.” left out, “(4) CL^′int=0.693×Dose/T½.” left out

VL in the donor compartment at the end of the experiment (Caco2 monolayers; Caco2, 50 µM, 120 min): no longer detectable
conversion of VL to sulfate (Caco2 monolayers; after 30 min): 100%
VL metabolized in the liver fraction ([1]; S9 liver fraction, 120 min): 70.83%
intrinsic clearance ([1]; human S9 fraction 1 mg/mL, 10 µM): 0.784 µM/min
half-life at 10 µM ([1]; liver S9 fraction, pH 7.4, human S9 fraction 1 mg/mL, 10 µM, NADPH + UDPGA, read-out: half‐life t ½): 8.72 min
stability under negative control experimental conditions ([1]; reaction enzymes replaced with water, data not shown): stable
half‐life t ½ ([2]; HLM 1 mg/mL, 10 µM): 23.084 min
half-life at 10 µM ([2]; human, liver microsomes, pH 7.4, HLM 1 mg/mL, read-out: half‐life t ½): 23.1 min
SMILES: O=C1CCC(Cc2ccc(O)c(O)c2)O1 (stereo not drawn) [VL, 5‐(3′,4′‐dihydroxyphenyl)‐γ‐valerolactone]
viability at 6 h (MTT cell viability assay): > 90%
